Consider four compounds from patent US11414489B2, “Combination therapy with a hyaluronan-degrading enzyme and an immune checkpoint inhibitor” (HALOZYME, INC., priority 2014, dated 2022).

The structures appear in SMILES notation.

Assay [1] has as its system parental MH194+PSC4 syngeneic tumors. The assay can be described thus: Tumor growth in parental MH194+PSC4 syngeneic tumor mouse model (tumor volume, TGI). The class given is in vivo, C57BL/6 mice. Particulars: for Tumor volume, Day 0: Day 0 (baseline); for Tumor volume, Day 0 / Tumor volume, Day 3 / Tumor volume, Day 7 / Tumor volume, Day 10 / Tumor volume, Day 14 / Tumor volume, Day 17 / Tumor volume, Day 21: mean ± SEM; for TGI (tumor growth inhibition): last day vs vehicle. The protocol:
MH194 mouse pancreatic carcinoma cells (derived from the KrasLSL.G12D/+p53R172H/+PdxCretg/+ genetically engineered mouse model) were engineered to constitutively express human hyaluronan synthase 3 (HAS3) as in Example 1A. Stably transduced cells, designated MH194/HAS3 cells, were selected by hygromycin treatment. MH194/HAS3 and parental MH194 cells were maintained in tissue culture as an adherent monolayer in DMEM medium supplemented with 2 mM L-glutamine and 10% fetal bovine serum at 37° C. and 5% CO2.
Pancreas from C57BL/6 mice were minced with razor blades and placed in 2 mL of a digestion buffer containing 0.05% collagenase P, 0.1% DNAse, and 0.02% Pronase in Gey's balanced salt solution (GBSS). Following two […] digestion incubations at 37° C. with thorough mixing after each incubation, the resulting cell suspension was filtered through a 100 μm nylon mesh, washed twice in GBSS with 0.3% bovine serum albumin (BSA), and resuspended in 10 mL GBSS/BSA. Eight mL of Histodenz (Sigma, Cat. No. D2158) was added to the cell suspension, and the entire volume was pipetted under 6 mL GBSS/BSA in order to generate a discontinuous density gradient. Following centrifugation for 20 min at 1,400 g with the brake set at zero, the desired cells were harvested from the interface between the two density volumes and washed once with PBS and once with DMEM medium supplemented with 2 mM L-glutamine, 10% fetal bovine serum, and 1% amphotericin-B (complete DMEM). Cells were immortalized using Lenti-SV40 (Capital Biosciences, Cat. No. CIP-0011) using manufacturer's protocol. The resulting cell line, designated PSC4, were maintained in tissue culture as an adherent monolayer in complete DMEM at 37° C. and 5% CO2.
MH194/HAS3 cells as described in part A above were trypsin-harvested at 80-90% confluency, washed twice with sterile Hanks Balanced Salt Solution (HBSS), and diluted with HBSS to a concentration of 4×10^6 cells/mL. Male C57BL/6 mice were obtained at 4-6 weeks from Taconic Farms and housed 4/cage. For tumor inoculations, mice were injected with 50 μL of cell suspension containing 2×10^5 MH194/HAS3 cells or parental MH194 cells along with 5×10^5 PSC4 (7×10^5 cells total) intramuscularly, adjacent to the right tibial periosteum.
Tumor volumes were measured by ultrasound as in Example 1A2. Approximately 15-30 frames out of 150-200 frames were analyzed and a tumor volume calculated and expressed in mm^3. When using the HA quantitation procedure described in Example 1A3, tumors grown from parental MH194+PSC4 cells contained 263±16 ng HA/mg tissue, whereas tumors grown from MH194/HAS3+PSC4 cells contained 1783±99 ng HA/mg tissue.
Mice containing parental MH194+PSC4 syngeneic tumors generated as described in Example 1C, with a mean tumor volume of 131±26 mm^3, were randomized into treatment groups, each containing 6 mice, such that the mean tumor volume of each group were substantially the same. Dexamethasone or saline (0.9% sodium chloride for injection) were administered intraperitoneally (IP) on days 0, 3, 7, 10, 14, and 17, and anti-PD-1 (BioXCell Inc, clone RMP1-14, Cat. No. BE0146) or saline were administered intraperitoneally (IP) on days 1, 4, 8, 11, 15, and 18, all at the dose levels indicated in Table 27. Tumor volumes were measured on days 0, 3, 7, 10, 14, 17, and 21. The middle dexamethasone dose level (3 mg/kg) was selected to approximate the human dose equivalent for clinical trials in which PEGPH20 is administered with dexamethasone to alleviate musculoskeletal discomfort.

For assay [2] the following is noted: glucocorticoid administration; route (IV or PO); cited from earlier work.
The mark [3] stands for this setting: Dex 1 mg/kg IP 24 h prior to saline or α-PD-1 4 mg/kg IP.
The mark [4] stands for this setting: Dex 3 mg/kg IP 24 h prior to saline or α-PD-1 4 mg/kg IP.
The mark [5] stands for this setting: Dex 5 mg/kg IP 24 h prior to saline or α-PD-1 4 mg/kg IP.

With `C[C@@H]1C[C@H]2[C@@H]3CCC4=CC(=O)C=C[C@]4(C)[C@@]3(F)[C@@H](O)C[C@]2(C)[C@@]1(O)C(=O)CO` [Dex], in assay [1] (setting [3]), the “Tumor volume, Day 0” value is listed as 133 ± 8 mm^3; the “Tumor volume, Day 3” value turned out to be 240 ± 19 mm^3; the “Tumor volume, Day 7” value stood at 374 ± 39 mm^3; the “Tumor volume, Day 10” value came out at 581 ± 50 mm^3. In assay [1] (setting [3]), the “Tumor volume, Day 14” value was 904 ± 81 mm^3; the “Tumor volume, Day 17” value is given as 1354 ± 147 mm^3; the “Tumor volume, Day 21” value turned out to be 1899 ± 155 mm^3; the “TGI (tumor growth inhibition)” value is 19%. In assay [1] (setting [4]), the “Tumor volume, Day 0” value was 133 ± 9 mm^3; the “Tumor volume, Day 3” value was 253 ± 17 mm^3; the “Tumor volume, Day 7” value amounted to 436 ± 23 mm^3; the “Tumor volume, Day 10” value worked out at 553 ± 63 mm^3. In assay [1] (setting [4]), the “Tumor volume, Day 14” value is given as 759 ± 81 mm^3; the “Tumor volume, Day 17” value is reported as 1346 ± 109 mm^3; the “Tumor volume, Day 21” value is listed as 1867 ± 130 mm^3; the “TGI (tumor growth inhibition)” value turned out to be 21%. Further, in assay [1] (setting [5]), the “Tumor volume, Day 0” value is given as 125 ± 10 mm^3; the “Tumor volume, Day 3” value was 251 ± 22 mm^3; the “Tumor volume, Day 7” value came out at 390 ± 46 mm^3; the “Tumor volume, Day 10” value came to 462 ± 46 mm^3. Further, in assay [1] (setting [5]), the “Tumor volume, Day 14” value came out at 729 ± 77 mm^3; the “Tumor volume, Day 17” value was found to be 1202 ± 118 mm^3; the “Tumor volume, Day 21” value was found to be 1630 ± 126 mm^3; the “TGI (tumor growth inhibition)” value was 31%.

Regarding `C[C@]12CCC(=O)C=C1CC[C@@H]1[C@@H]2[C@@H](O)C[C@@]2(C)[C@H]1CC[C@]2(O)C(=O)CO` [Hydrocortisone], the “Equivalent Potency” value in assay [2] is 20 mg.

On to `C[C@H]1C[C@@H]2[C@H]([C@@H](O)C[C@@]3(C)[C@H]2CC[C@]3(O)C(=O)COC(=O)CCC(=O)O)[C@@]2(C)C=CC(=O)C=C12` [Methylprednisolone sodium succinate], for which, in assay [2], the “Equivalent Potency” value is 4 mg.

`C[C@]12C=CC(=O)C=C1CC[C@@H]1[C@@H]2[C@@H](O)C[C@@]2(C)[C@H]1CC[C@]2(O)C(=O)CO` [Prednisolone]: in assay [2], the “Equivalent Potency” value is on record as 5 mg.
